Results reported in patent US8470861B2, “Mitochondria-targeted antioxidant prodrugs and methods of use” (University of Rochester, priority 2005, dated 2013).
Blank lines part the entries; values can stand above or below the molecule they belong to.

Columns and labels:
[1] = system: isolated rat cardiomyocytes; experiment: Cytoprotective effects in cardiomyocytes, hypoxia-reoxygenation protocol (Trypan Blue exclusion); assay type: cell-based; settings: for cytoprotection: compounds 1 μM, etomoxir 20 μM; for cytoprotective effect in presence of etomoxir: compound 1 μM + etomoxir 20 μM
Procedure: Upper panel: Alkanoic acids 28a and 28b (1 μM), methimazole (1 μM), and etomoxir (20 μM) were incubated with cardiomyocytes in a hypoxia-reoxygenation protocol. CON, control; HR, hypoxia-reoxygenation; Eto, etomoxir. Statistical analysis (one-way ANOVA, n=3): CON vs. HR, p<0.05; HR vs. HR+28a, p<0.05; CON vs. HR+28a, NS; HR+28a vs. HR+28a+Eto, p<0.05; HR vs. HR+28b, p<0.05; HR+28b vs. HR+28b+Eto, p<0.05; HR vs. Methimazole, NS. Lower panel: Alkanoic acids 25c and 30a (1 μM), 2,6-dimethylphenol (1 μM), and etomoxir (20 μM) were incubated with cardiomyocytes in a hypoxia-reoxygenation protocol. CON, control; HR, hypoxia-reoxygenation; Eto, etoximir. Statistical analysis (one-way ANOVA, n=3): CON vs. HR, p<0.05; HR vs. HR+25c, p<0.05; CON vs. HR+25c, p<0.05; HR+25c vs. HR+25c+Eto, p<0.05; HR vs. HR+30a, p<0.05; HR+30a vs. HR+30a+Eto, p<0.05; HR vs. 2,6-Dimethylphenol, NS.
Primary ventricular cardiomyocytes were isolated from adult rats and viability was assessed […]. All cells were used within 1 hour of isolation and were 80-85% viable and rod-shaped prior to the experiments. Cell viability was quantified with the Trypan Blue exclusion test. The cells were subjected to a hypoxia-reoxygenation protocol designed to simulate cardiac ischemia-reperfusion injury.

[2] = system: isolated rat liver mitochondria (mitochondrial β-oxidation); experiment: Mitochondrial biotransformation of alkanoic-acid-based prodrugs; settings: for biotransformation / substrate quality for β-oxidation (in words): isolated rat liver mitochondria; for effect of added carnitine on biotransformation: presence vs. absence of added carnitine
Text: Mitochondrial Biotransformation of Alkanoic-Acid-Based Prodrugs. Rat liver mitochondria were isolated from livers freshly collected from adult male Sprague-Dawley rats (190-225 g) and were used as soon as possible after isolation (Nadtochiy, et al. (2007) J. Mol. Cell. Cardiol. 42:812; Hoffman et al. (2007) Am. J. Physiol. 292:H101). Livers were removed immediately after CO2 euthanasia of the animal, minced, and homogenized with a glass Dounce homogenizer with loose-fitting pestle in liver mitochondria isolation medium that contained 0.25 M sucrose, 2.0 mM HEPES, 1.0 mM EGTA (pH 7.4) at 4° C. The homogenate was centrifuged once at 1000×g for 3 minutes at 4° C. to remove cellular debris. After removal of visible surface fat, the resulting supernatant was centrifuged at 10,000×g for 10 minutes at 4° C. The supernatant was discarded after removing visible surface fat, and the pellet was suspended in ice-cold liver mitochondria isolation medium and centrifuged again at 10,000×g for 10 minutes at 4° C. The mitochondrial pellet thus obtained was suspended in Ca^2+-depletion buffer (1 mM EGTA, 10 mM NaCl, 5 mM succinate, 195 mM mannitol, 25 mM sucrose, 40 mM HEPES, pH 7.2) at room temperature) and incubated with gentle stirring first at room temperature for 10 minutes and then in an ice bath for 5 minutes. Ca^2+-Depletion buffer serves to chelate calcium, activate mitochondrial respiration, and activate the Na^+/Ca^2+ exchanger. The mitochondrial suspension was then centrifuged at 10,000×g for 10 minutes at 4° C., and the pellet was suspended in liver swelling buffer that contained 195 mM mannitol, 25 mM sucrose, 40 mM HEPES (pH 7.2) at 4° C.; liver swelling buffer allows for ionic/osmotic equilibrium through the remainder of the preparation. The suspension was centrifuged at 10,000×g for 10 minutes at 4° C., followed by the removal of light mitochondria and a final centrifugation at 10,000×g for 10 minutes at 4° C. The mitochondrial pellet was suspended in liver swelling buffer at 4° C. Protein concentrations were determined with the Lowry reagent.^56
The quality of mitochondrial preparations was determined by estimating the respiration control ratio (RCR, i.e., the ratio of state 3 vs. state 4 respiration rates) with a Clark-type oxygen electrode (Oxygraph, Hansatech Instruments, Norfolk, England). The incubation mixtures contained 120 mM KCl, 25 mM sucrose, 5 mM MgCl2, 5 mM KH2PO4, 1 mM EGTA, 10 mM HEPES, 10 mM succinate, 2.5 mg/mL fat-free bovine serum albumin, 0.5-0.8 mg/mL mitochondrial protein, 5 μM rotenone, and 100 μM ADP (pH 7.4) and were incubated at 37° C.
Reaction mixtures were prepared in disposable glass culture tubes and contained 20 mM HEPES, 1 mM EGTA, 100 mM KCl, 5 mM KH2PO4, 10 mM MgCl2, 25 mM sucrose, 2 mM L-carnitine (if added), 5 mM ATP, 10 mg/mL bovine serum albumin, 1.4 mM dithiothreitol, 0.13 mM CoA, and 1 mM substrate (pH 7.4). Reaction mixtures were incubated at 37° C. with gentle stirring. Mitochondrial protein (approximately 5 mg/mL) was added, and the samples were incubated for 5 minutes with gentle mixing, which was maintained during the incubation period, to keep the homogenate suspended. After 5 minutes of incubation, the substrates were added. The substrates were dissolved in methanol and added to the reaction mixtures to a final concentration of 1 mM, unless otherwise stated; the final methanol concentration was ≦0.5%. ω-(1-Methyl-1H-imidazol-2-ylthio)alkanoic acids 28a and 28b were dissolved in distilled water and added to the reaction mixtures to a final concentration of 1 mM. Samples were incubated at 37° C. for 30 minutes with constant gentle mixing, and samples were collected for analysis at t=0, 10, 20, and 30 minutes.
Phenolic metabolite formation, i.e., phenol, 2-methylphenol, 2,6-dimethylphenol, 3,5-dimethylphenol, and 2,6-diisopropylphenol, from ω-(phenoxy)alkanoic acids, was quantified by HPLC analysis.

[3] = system: IMR90 cells; settings: cited from earlier work
[4] = cited from earlier work
[5] = 5 mg/kg daily for two weeks in feed, cited from earlier work

SMILES: Cn1ccnc1S [methimazole, 2-Mercapto-1-methylimidazole, reference compound]
- cytoprotection [1]: failed to provide cytoprotection

- biotransformation / substrate quality for β-oxidation (in words) [2]: poor substrates
SMILES: Cc1cccc(C)c1OCCC(=O)O [Compound 25c, 3-(2,6-Dimethylphenoxy)propanoic acid]
- cytoprotective effect in presence of etomoxir [1]: blocked by etomoxir
- cytoprotection [1]: cytoprotective

SMILES: CCOC(=O)[C@@]1(CCCCCCOc2ccc(Cl)cc2)CO1 [etomoxir, reference compound]
- cytoprotection [1]: no cytoprotective effect

- effect of added carnitine on biotransformation [2]: no significant difference
SMILES: O=C(O)CCOc1ccccc1 [Compound 25a, 3-(Phenoxy)propanoic acid]

- biotransformation / substrate quality for β-oxidation (in words) [2]: no biotransformation
SMILES: Cc1cccc(C)c1O/C=C\C(=O)O [(Z)-3-(2,6-dimethylphenoxy)acrylic acid]

SMILES: CNO [N-methylhydroxylamine]
- concentration that delays senescence (as low as) [3]: 10 µM

SMILES: CC(C)c1cccc(C(C)C)c1O/C=C/C(=O)O [Compound 30b, (E)-3-(2,6-diisopropylphenoxy)acrylic acid]
- biotransformation / substrate quality for β-oxidation (in words) [2]: No quantifiable biotransformation

SMILES: Cc1c(S)ncn1C [1,5-dimethyl-4-mercaptoimidazole]
- pKa of the thiol group [4]: 2.3

- biotransformation / substrate quality for β-oxidation (in words) [2]: much better substrate
- effect of added carnitine on biotransformation [2]: no significant difference
SMILES: Cc1cccc(C)c1OCSCCC(=O)O [Compound 29, 3-[(2,6-Dimethylphenoxy)methylthio]propanoic acid]

SMILES: CC(C)(C)NO [N-tert-butylhydroxylamine]
- concentration that delays senescence (as low as) [3]: 10 µM
- radiation sensitivity ([5]; 8 Gy whole-body irradiation): decreased the radiation sensitivity
- compound-associated toxicity [5]: no compound-associated toxicity was observed

- rate of biotransformation relative to saturated analog 25c ([2]; 30a vs. 25c): approximately 20 fold
SMILES: Cc1cccc(C)c1O/C=C/C(=O)O [Compound 30a, (E)-3-(2,6-dimethylphenoxy)acrylic acid]
- cytoprotective effect in presence of etomoxir [1]: blocked by etomoxir
- cytoprotection [1]: cytoprotective

SMILES: Cn1ccnc1SCCC(=O)O [Compound 28a, 3-(1-methyl-1H-imidazol-2-ylthio)propanoic acid]
- cytoprotective effect in presence of etomoxir [1]: blocked by etomoxir
- cytoprotection [1]: significant cytoprotection

- biotransformation / substrate quality for β-oxidation (in words) [2]: poor substrates
SMILES: Cc1cccc(C)c1OCCCCC(=O)O [Compound 26c, 5-(2,6-Dimethylphenoxy)pentanoic acid]

SMILES: Cn1ccnc1SCCCCC(=O)O [Compound 28b, 5-(1-Methyl-1H-imidazol-2-ylthio)pentanoic acid]
- cytoprotective effect in presence of etomoxir [1]: blocked by etomoxir
- cytoprotection [1]: significant cytoprotection

SMILES: ONCc1ccccc1 [N-benzylhydroxylamine]
- concentration that delays senescence (as low as) [3]: 10 µM
